Like-named read-outs stand apart in the source and are kept apart here.
What was measured:
[1] = Crystal form stability of salt forms as suspensions in solvents; conditions: for Crystal form after stirring suspension: room temperature
[2] = Solubility of sodium salt in water (water gradually added until clear); format: physicochemical; conditions: thermodynamic from solid; in water at 25° C.; deionized water gradually added, ultrasonication to clear solution
Description: The solubility of the sample in water was calculated.

[3] = Storage stability of sodium salt crystal form, 4 months; format: physicochemical; conditions: room temperature, relative humidity 10%-90%
[4] = Thermal stability, decomposition temperature by TGA; format: physicochemical
Description: Thermogravimetric Analysis (TGA) data were collected with TA Instruments Q500 TGA. The detection method used was as follows: 5-15 mg of a samples was placed in a platinum crucible, and a segmented high-resolution detection method was adopted in which the temperature of the sample was increased from room temperature to 300° C. at a heating rate of 10° C./min under the protection of 40 mL/min dry N2.

[5] = Crystal form stability of free state in solvents (Comparative Example 1 of CN105315266A); format: physicochemical
Excerpt: Identification, preparation, a composition and use of the compound represented by formula A are disclosed in patent document CN103450171A (which is incorporated herein by reference in its entirety). Specifically, a method for preparing the compound is disclosed in Example 2. 12 crystal forms of the compound represented by formula A are disclosed in patent document CN105315266A (which is incorporated herein by reference in its entirety).

[6] = start: crystal forms I-XII and amorphous form, cited from earlier work
[7] = Solubility of free state and salt forms in water by HPLC; format: physicochemical; conditions: stirred 2 h at 25° C., filtered
Description: HPLC solubility data were collected with Agilent 1260 high performance liquid chromatograph. The chromatographic column used was Poroshell 120 EC-C18 ([…]), the detection wavelength was 254 nm, column temperature for detection was 40° C., flow rate was 1.5 mL/min, and the sample volume was 5 μL. A sample was dissolved in mobile phase B to prepare a sample solution of a concentration about 0.45 mg/mL, and HPLC detection was performed according to the following gradient elution mode to obtain concentration in the sample.
Then samples were taken and filtered, and the concentrations were detected by HPLC. The solubility of the active ingredient in each of the samples in water was calculated.

Hygroscopicity by DVS = format: physicochemical; conditions: relative humidity 20%-80%; for Moisture uptake: DVS; for Appearance: after DVS
Description: Dynamic Vapor Sorption (DVS) data and isothermal sorption analysis data were collected with TA Instruments Q5000 TGA. The detection method used was as follows: 1-10 mg of a sample was placed in a platinum crucible, and weight change with the change of relative humidity from 20% to 80% was detected.

[8] = Crystal form storage stability, 30 days under conventional, high-temperature and accelerated conditions; format: physicochemical; conditions: 1 month under conventional, high-temperature (60° C.) and accelerated conditions (40° C.-75% relative humidity)
Description: The crystal form of the sulfate of the compound represented by formula A and the crystal form of the maleate of the compound represented by formula A according to the present application were taken to perform a stability experiment. Specific operation was as follows: 60 mg of the samples of the crystal form of the sulfate of the compound represented by formula A and the crystal form of the maleate of the compound represented by formula A according to the present application were taken and placed for 30 days respectively under conventional condition (sealed and placed in a dark place at 25° C.), high-temperature condition (sealed and placed in a dark place at 60° C.) and accelerated condition (opened and placed in a dark place at 40° C.-75% relative humidity) to study crystal form stability.

SMILES | Crystal form after stirring suspension ([1]; Acetone, 3 days) | Crystal form after stirring suspension ([1]; Ethanol, 3 days) | Crystal form after stirring suspension ([1]; Isopropanol, 3 days) | Crystal form after stirring suspension ([1]; Water, 3 days) | Crystal form after stirring suspension ([1]; Water:acetone = 1:1, 3 days) | Crystal form after stirring suspension ([1]; Water:acetone = 1:5, 3 days) | Crystal form after stirring suspension ([1]; Water:acetone = 1:10, 3 days) | Crystal form after stirring suspension ([1]; Water:acetone = 1:100, 3 days) | Crystal form after stirring suspension ([1]; Water:ethanol = 1:1, 3 days) | Crystal form after stirring suspension ([1]; Water:ethanol = 1:5, 3 days) | Crystal form after stirring suspension ([1]; Water:ethanol = 1:10, 3 days) | Crystal form after stirring suspension ([1]; Water:ethanol = 1:100, 3 days) | Stability of crystal form in aqueous systems [1] | Moisture uptake (Hygroscopicity by DVS) | Appearance (Hygroscopicity by DVS) | Solubility [7] | Appearance, XRPD pattern and melting point after storage [8] | also measured
CC(C)Cc1ccc(-c2nc(-c3ccc(CN4CC(C(=O)[O-])C4)c(F)c3)no2)cc1.[Na+] [sodium salt of 1-{2-fluoro-4-[5-(4-isobutylphenyl)-1,2,4-oxadiazole-3-yl]benzyl}-3-azetidinecarboxylic acid] | No change | No change | No change | No change | No change | No change | No change | No change | No change | No change | No change | No change | stable |  |  |  |  | Solubility [2]: 10 mg/mL; Appearance, XRPD pattern and melting point after storage [3]: unchanged; Decomposition temperature [4]: 275 °C
CC(C)Cc1ccc(-c2nc(-c3ccc(CN4CC(C(=O)O)C4)c(F)c3)no2)cc1 [1-{2-fluoro-4-[5-(4-isobutylphenyl)-1,2,4-oxadiazole-3-yl]benzyl}-3-azetidinecarboxylic acid] |  |  |  |  |  |  |  |  |  |  |  |  |  |  |  |  |  | Most stable crystal form ([5]; in an organic solvent): crystal form IV; Most stable crystal form ([5]; in water): crystal form I; Final crystal form ([6]; Acetone): Crystal form IV; Final crystal form ([6]; Ethanol): Crystal form IV; Final crystal form ([6]; Isopropanol): Crystal form IV; Final crystal form ([6]; Water:acetone = 1:1): Crystal form I; Final crystal form ([6]; Water:acetone = 1:5): Crystal form I; Final crystal form ([6]; Water:acetone = 1:10): Crystal form I; Final crystal form ([6]; Water:acetone = 1:100): Crystal form I; Final crystal form ([6]; Water:ethanol = 1:1): Crystal form I; Final crystal form ([6]; Water:ethanol = 1:5): Crystal form I; Final crystal form ([6]; Water:ethanol = 1:10): Crystal form I; Final crystal form ([6]; Water:ethanol = 1:100): Crystal form I; Final crystal form ([6]; Water): Crystal form I; Solubility ([7]; listed as compound represented by formula A): 0.0011 mg/mL
CC(C)Cc1ccc(-c2nc(-c3ccc(CN4CC(C(=O)O)C4)c(F)c3)no2)cc1 [sulfate of 1-{2-fluoro-4-[5-(4-isobutylphenyl)-1,2,4-oxadiazole-3-yl]benzyl}-3-azetidinecarboxylic acid] | No change | No change | No change | No change | No change | No change | No change | No change | No change | No change | No change | No change | stable | 0.7% | Powder | 0.0192 mg/mL | unchanged | Solubility ([7]; listed as sulfate of the compound represented by formula A): 0.019 mg/mL
CC(C)Cc1ccc(-c2nc(-c3ccc(CN4CC(C(=O)O)C4)c(F)c3)no2)cc1.O=C(O)/C=C\C(=O)O [maleate of 1-{2-fluoro-4-[5-(4-isobutylphenyl)-1,2,4-oxadiazole-3-yl]benzyl}-3-azetidinecarboxylic acid] | No change | No change | No change | No change | No change | No change | No change | No change | No change | No change | No change | No change | stable | 0.4% | Powder | 0.0161 mg/mL | unchanged | solubility at 2 h ([7]; deionized water, 25 °C, water, thermodynamic from solid): 0.016 mg/mL

From patent US11512078B2, “Addition salt of S1P1 receptor agonist and crystal form thereof, and pharmaceutical composition” (SUZHOU CONNECT BIOPHARMACEUTICALS, LTD., priority 2018, dated 2022)
